“Also recorded” adds a separate entry of the source.
Key:
[1] = tested on: RL xenograft (EZH2 inhibitor-insensitive GCB-DLBCL cell line); test: RL mouse xenograft tumor volume; assay type: in vivo; conditions: 200 mg/kg twice daily, 18 days
Protocol: (§1) To verify the gene signature as a readout of target engagement and not phenotypic responsive, an EZH2 inhibitor-insensitive GCB-DLBCL cell line, RL, was utilized in a mouse xenograft model. The RL xenograft bearing mice were treated twice daily with 200 mg/kg Compound 2 or vehicle control for 18 days. […] Tumors were harvested 6 hours post-last dose on day 18 of treatment and processed and analyzed using the QuantiGene® Plex assay, as described above.

RL xenograft = test: Multiplexed QuantiGene assay of signature genes in RL mouse xenograft tumors; assay type: in vivo; conditions: 200 mg/kg twice daily, day 18, tumors harvested 6 hours post-last dose
Protocol: as §1
(§2) For each gene in each sample, the background median fluorescence intensity (MFI) value (recorded on the Luminex Magpix) was subtracted from the gene's measured MFI value. […]
(§3) Following regularization, the data from each well was processed independently by first generating a normalization factor by taking the geometric mean of regularized background-subtracted MFI values for 4 housekeeping genes (ACTB, POLR2A, PPIB, TBP). […] If more than 1 technical replicate was run for an individual sample, an average value was then calculated for each gene. These values were then converted to log 2 space, and log 2 fold change values were determined by subtracting vehicle/control values from treated values. […]
To determine the statistical significance of the engagement score, a phenotype permutation test was performed by randomly assigning the empirically determined expression values for each gene to the control or treated condition. […]

[2] = tested on: global H3K27me3 levels in Karpas-422 GCB-DLBCL cells; test: H3K27me3 western blotting in Karpas-422 cells treated with EZH2 inhibitors; assay type: cell-based, human; conditions: 1.5 μM, 4 days, vs DMSO, total H3 as control
Protocol: Lymphoma cell lines were grown in 10 ml cultures (as described in 2.1). […] After drug treatment, cells were centrifuged at 500×g for 3 min, supernatant was removed, and cell pellet was resuspended in 0.75 ml Trizol Reagent (Life Technologies, catalog #15596-026). RNA was extracted as per the manufacturer's protocol, resuspended in nuclease-free water, quantified using a NanoDrop 2000 UV-vis spectrophotometer (Thermo Scientific), and sent to Ocean Ridge Biosciences (http://www.oceanridgebio.com/) for RNA-sequencing. […]
In order to detect potential EZH2 inhibitor-mediated gene expression changes that could serve as a manifestation of target engagement, Karpas-422 GCB-DLBCL cells were treated with vehicle (dimethyl sulfoxide; DMSO) or Compound 1 for 4 days. […] The samples that were committed to RNA-sequencing were analyzed for changes in H3K27me3 levels by western blotting. […]

[3] = tested on: Karpas-422 GCB-DLBCL cells; test: RNA-sequencing gene expression profiling of Karpas-422 cells; assay type: cell-based, human; conditions: 1.5 μM, 4 days
Protocol: Lymphoma cell lines were grown in 10 ml cultures (as described in 2.1). Cells were treated with 0.1% DMSO, 1.5 μM Compound 1 or in the presence of 1.5 μM other EZH2 inhibitors such as GSK126 and EPZ6438 for 4 days. After drug treatment, cells were centrifuged at 500×g for 3 min, supernatant was removed, and cell pellet was resuspended in 0.75 ml Trizol Reagent (Life Technologies, catalog #15596-026). RNA was extracted as per the manufacturer's protocol, resuspended in nuclease-free water, quantified using a NanoDrop 2000 UV-vis spectrophotometer (Thermo Scientific), and sent to Ocean Ridge Biosciences (http://www.oceanridgebio.com/) for RNA-sequencing. Cell samples were collected and total RNA was prepared (see 2.2). […] (2) 7 DLBCL cell lines treated for 4 days with GSK343 (generated in two separate experiments, with HT and SUDHL6 comprising the first experiments, the other 5 cell lines in a second experiment. For the HT and SUDHL6 cell samples in dataset 2, reads were aligned to the hg19 genome using bowtie version 0.12.9. The other datasets were aligned to the hg19 genome with Tophat 1.4.1 The aligned read files were sorted and duplicates removed using sort and rmdup functions from samtools version 0.1.182. See Li, H. et al. The Sequence Alignment/Map format and SAMtools. Bioinformatics 25, 2078-2079 (2009). […]

Karpas-422 cells = test: Multiplexed QuantiGene assay of EZH2-controlled signature genes in Karpas-422 cells in vitro; assay type: cell-based, human; conditions: 1.5 μM, 4 days, vs DMSO
Protocol: The gene list described in Table 2 was submitted to Affymetrix, and a multiplexed QuantiGene® assay (https://www.ebioscience.com/application/gene-expression/quantigene-plex-assay.htm) probe set on the basis was generated specific to the human genome (see Appendix B). The primer and probe sequences used to generate the multiplex assay were not made available by the vendor.
In addition to validating the assay using a Karpas-422 mouse xenograft model, RNA from Karpas-422 cells treated with 1.5 μM Compound 1 for 4 days was also used. Samples were processed and quantitated as described above. […]
as §2, §3

Karpas-422 xenograft = test: Multiplexed QuantiGene assay of signature genes in Karpas-422 mouse xenograft tumors; assay type: in vivo
Protocol: (§4) FIGS. 4A and B illustrate a comparison of Compound 1-mediated H3K27me3 level and gene expression changes in phenotypically responsive Karpas-422 xenografts where (A) represents tumor samples (n=4) from a Karpas-422 mouse xenograft experiment in which mice were dosed twice daily, orally with vehicle, 100 or 200 mg/kg of Compound 1 for 4, 7, or 14 days, and were analyzed by ELISA assays to determine H3K27me3 levels; and (B) is the same tumor samples described in (A) (n=4), but were analyzed by a multiplexed QuantiGene® assay for the transcript levels of 50 genes, 4 of which were housekeeping.
For isolation of RNA from tissues: Tumor samples from a Karpas-422 mouse xenograft experiment in which mice were dosed BID with vehicle, 100 or 200 mpk Compound 1 for 4, 7, or 14 days, were obtained. Tumors were frozen in liquid nitrogen, then pulverized. A small aliquot of frozen, pulverized tissue was resuspended in 600 μl buffer RLT (Qiagen) containing 65 mM DTT, applied to a QIAShredder column (Qiagen), and centrifuged for 3 min at 20,000×g. […] RNA was eluted in nuclease-free water, and concentrations were normalized following quantitation on a NanoDrop 2000 UV-vis spectrophotometer.
Initial tests were performed to determine the linearity of the QuantiGene® Plex Set, followed by full validation of the assay showing time- and dose-dependent gene expression changes in a mouse xenograft treated with Compound 1. […] The QuantiGene® assay was performed as per the manufacturer's protocol, and quantitated on a Luminex Magpix. […]
as §2
as §3, with “gene.” for “gene. These values were then converted to log 2 space, and log 2 fold change values were determined by subtracting vehicle/control values from treated values.”

[4] = tested on: H3K27me3 levels in Karpas-422 xenografts; test: H3K27me3 ELISA of Karpas-422 mouse xenograft tumor samples; assay type: in vivo; conditions: Karpas-422 xenograft, 100 or 200 mg/kg BID oral
Protocol: as §4

| Compound | tumor volume vs vehicle-treated mice [1] | gene signature score (QuantiGene) (RL xenograft) | global H3K27me3 levels (western blotting) [2] | gene expression changes compared with those of other EZH2 inhibitors (GSK126, EPZ-6438) [3] | number of genes with significantly changed expression ([3]; vs DMSO, log 2 fold change >0.8, p<0.05) | signature gene expression (QuantiGene) (Karpas-422 cells) | signature gene expression in tumors vs vehicle-treated tumors (Karpas-422 xenograft; 100 or 200 mg/kg BID oral, 4, 7 and 14 days, tumors harvested 6 hours post last dose) | gene expression signature (aggregate gene score), treatment arms vs vehicle arms (Karpas-422 xenograft; 100 or 200 mg/kg BID oral, all three time points (4, 7, 14 days)) | magnitude of signature gene expression changes in tumors compared with cells treated in vitro (Karpas-422 xenograft; 4 days, 100 mg/kg BID and 200 mg/kg BID, vs cells at 1.5 μM for 4 days) | H3K27me3 levels normalized to total histone H3 (ELISA) ([4]; 14 days, t-test p<0.05 vs vehicle) | H3K27me3 levels normalized to total histone H3 (ELISA) ([4]; earlier time points (4, 7 days)) |
| --- | --- | --- | --- | --- | --- | --- | --- | --- | --- | --- | --- |
| CCS(=O)(=O)N1CCC([C@@H](C)n2c(C)c(C(=O)NCc3c(OC)cc(C)[nH]c3=O)c3ccccc32)CC1 [Compound 2] | No reduction in tumor volume | statistically significant gene signature score |  |  |  |  |  |  |  |  |  |
| COc1cc(C)[nH]c(=O)c1CNC(=O)c1c(C)n([C@H](C)C2CCN(CC(F)(F)F)CC2)c2ccccc12 [Compound 1, (R)—N-((4-methoxy-6-methyl-2-oxo-1,2-dihydropyridin-3-yl)methyl)-2-methyl-1-(1-(1-(2,2,2-trifluoroethyl)piperidin-4-yl)ethyl)-1H-indole-3-carboxamide] |  |  | effectively reduced global H3K27me3 levels | remarkably similar | 604 genes | significant increase and decrease of signature gene expression | significant induction of signature genes in a dose- and time-dependent manner; also recorded: significant alteration of signature genes; also recorded: significantly induced EZH2-target genes | robust and statistically significant change | did not show the same magnitude of signature gene expression changes | significant reduction in H3K27me3 levels | not statistically significant |
| CCC(C)n1cc(C)c2c(C(=O)NCc3c(C)cc(C)[nH]c3=O)cc(-c3ccc(N4CCNCC4)nc3)cc21 (stereo not drawn) [GSK126, reference compound] |  |  | substantial loss of H3K27me3 |  |  |  |  |  |  |  |  |

Reference: US20210161883A1, “EZH2 INHIBITOR-INDUCED GENE EXPRESSION” (Constellation Pharmaceuticals, Inc., priority 2017, published 2021)
